According to US20100048713A1, “COMPOUNDS ACTING ON THE SEROTONIN TRANSPORTER” (Aarhus Universitet, priority 2006, published 2010):

Experiments:
hSERT [1] = molecular target: T1, hSERT (Homo sapiens, UniProt P31645); experiment: Dissociation assay with [3H]-citalopram and hSERT membrane preparations; assay type: binding; details: for Stabilises dissociation of [3H]-citalopram: 15 uM citalopram (concentration which affects dissociation): 15 uM citalopram in dissociation buffer; for Stabilises dissociation of [3H]-citalopram: own effect (10 uM fluoxetine) (concentration which affects dissociation): 10 uM fluoxetine in dissociation buffer
T1 construct: expressed in transfected cells; the general 96-well protocol names Cos-1
Method: (§1) 17.5 μl Fugene-6 (Roche Molecular Biochemicals) were mixed with 280 μl Dulbecco's modified Eagle's medium, and incubated at room temperature for 5 minutes. 10 μg of plasmid were added and the mixture was further incubated at least 15 minutes. […] Prior to harvesting the dish was rinsed in PBS. Cells were harvested with a cell scraper in buffer 1 (50 mM Tris-base, 150 mM NaCl, 20 mM EDTA, pH 7.4). After centrifugation (3000 g at 4° C. for 10 mins), cells were suspended and homogenized with an IKA Ultra-Turrax from Rose Scientific Ltd (Edmonton, Alberta, Canada) for 20 s in buffer 1. Membranes were pelleted by ultracentrifugation (12 000 g at 4° C. for 15 min) and homogenization was repeated in buffer 1. Finally, after ultracentrifugation (12000 g, 4° C., 15 min) membranes were resuspended in 1 ml buffer 3 (50 mM Tris-base, 120 mM NaCl, 5 mM KCl, pH 7.4) and stored at −80° C.
Dissociation assay with [^3H]-citalopram and membrane preparations SERT-[^3H]-citalopram complex was formed by incubating hSERT membrane preparation and radioligand in buffer 3 during a 60 min incubation at 4° C. Radioligand was present at a concentration 10 times the Kd value. The time kinetic of dissociation was followed by adding 10 μL complex solution to 250 μL buffer 3 in 96-well plates and incubating subsequently for increasing time intervals at RT. Reactions were terminated by filtration through GF/C glass-fibre filters (Unifilter, Perkin Elmer Life Sciences), preincubated with 40 μl 0.5 % polyethyleneimine, using a Pachard Bell cell harvester, and subsequently washed three times with water. Filters were soaked in 40 μl Microscint 20 scintillation liquid (Pachard Bell). Bound radioactivity was determined by direct counting of plates using a Packard Bell microplate scintillation counter. Dissociation curves were obtained by plotting residual binding vs. time of dissociation.
The interaction of the allosteric ligand with the allosteric mechanism used by citalopram was studied by combining allosteric ligand and citalopram in the dissociation buffer. The interaction of the allosteric ligand with the radioligand was studied by combining the allosteric ligand and fluoxetine in the dissociation buffer.
(§2) Dissociation of [^3H]-citalopram from the serotonin transporter has been studied using membrane preparations from SERT-expressing cells. The off-rates of the radioligand were measured in the presence/absence of a fixed concentration of allosteric ligand. […] Additionally, the allosteric impact on the radioligand in the absence of citalopram, was studied by combining 10 μM fluoxetine and 200/2000 μM allosteric ligand in the dissociation buffer. […] The cells were incubated for 10 minutes before the assay was terminated by washing in PBSCM.

hSERT [2] = molecular target: T1, hSERT; experiment: 5-HT uptake assay, 10 min incubation without preincubation; assay type: cell-based; details: 75 nM [3H]-5-HT, no preincubation
Method: Cells were grown for 48 h to confluency, and prior to uptake assay, plates were washed in PBSCM. All washing steps were carried out in an automatic plate washer. […] The assay was terminated by washing with PBSCM. The amount of accumulated [^3H]-5HT was determined by solubilizing cells in scintillant (MicroScint 20) with direct counting of plates in a Packard TopCounter. Data was analyzed by GraphPad software.
as §2

hSERT [3] = molecular target: T1, hSERT; experiment: Binding of [3H]-citalopram to membrane preparations; details: 35 nM [3H]-citalopram, 60 min RT
Method: as §1
A dilution series of the allosteric ligand was prepared in buffer 3 containing 70 nM [^3H]-citalopram. […] The mixture was incubated under moderate agitation at RT for 60 min. Reactions were terminated by filtration through GF/C glass-fibre filters (Unifilter, Perkin Elmer Life Sciences), preincubated with 40 μl 0.5 % polyethyleneimine, using a Pachard Bell cell harvester, and subsequently washed three times with water. Filters were soaked in 40 μl Microscint 20 scintillation liquid (Pachard Bell). Bound radioactivity was determined by direct counting of plates using a Packard Bell microplate scintillation counter. Displacing curves were obtained by plotting residual binding vs. log concentration of the displacing ligand.

hSERT [4] = molecular target: T1, hSERT; experiment: Binding assay on whole cells transfected with hSERT ([3H]-citalopram displacement); details: for EC50: whole cell assay, 35 nM [3H]-citalopram, 60 min room temperature, table title: 45 min preincubation
Method: The pcDNA3 plasmid vector containing the hSERT gene was used for transfection (see FIG. 6).
(§3) The 96-well plate was washed with PBSCM to remove DMEM prior to the assay. […] The plate was subsequently incubated for 60 min at room temperature. The assay was terminated by washing once with PBSCM. The amount of accumulated [^3H]-citalopram was determined by solubilizing cells in scintillant (MicroScint 20) with direct counting of plates in a Packard TopCounter. Data was analyzed by GraphPad software.

hSERT [5] = molecular target: T1, hSERT; experiment: 5-HT uptake assay with preincubation (whole cells); assay type: cell-based; details: whole cell assay with preincubation (title 45 min, text 60 min), 75 nM [3H]-5-HT, 10 min
Method: 7 μl Fugene-6 was mixed with 112 μl Dulbecco's modified Eagle's medium, and incubated at room temperature for 5 minutes. 4 μg of plasmid were added and the mixture was further incubated at least 15 minutes. Cos-1 cells were trypsinized and suspended in growth media, and the plasmid/Fugene-6 mixture was added followed by dispersion into a 96-well plate.
as §3, with “assay. 50 μl PBSCM containing increasing concentrations of allosteric ligand were added to each well, and incubated for 60 min at room temperature under moderate agitation.” for “assay.”, “10” for “60”, “[^3H]-5-HT” for “[^3H]-citalopram”
We tested the allosteric ligands for their ability to inhibit/activate 5-HT-uptake in the whole-cell assay after 60 minutes preincubation.

T1 sequence (P31645 whole entry): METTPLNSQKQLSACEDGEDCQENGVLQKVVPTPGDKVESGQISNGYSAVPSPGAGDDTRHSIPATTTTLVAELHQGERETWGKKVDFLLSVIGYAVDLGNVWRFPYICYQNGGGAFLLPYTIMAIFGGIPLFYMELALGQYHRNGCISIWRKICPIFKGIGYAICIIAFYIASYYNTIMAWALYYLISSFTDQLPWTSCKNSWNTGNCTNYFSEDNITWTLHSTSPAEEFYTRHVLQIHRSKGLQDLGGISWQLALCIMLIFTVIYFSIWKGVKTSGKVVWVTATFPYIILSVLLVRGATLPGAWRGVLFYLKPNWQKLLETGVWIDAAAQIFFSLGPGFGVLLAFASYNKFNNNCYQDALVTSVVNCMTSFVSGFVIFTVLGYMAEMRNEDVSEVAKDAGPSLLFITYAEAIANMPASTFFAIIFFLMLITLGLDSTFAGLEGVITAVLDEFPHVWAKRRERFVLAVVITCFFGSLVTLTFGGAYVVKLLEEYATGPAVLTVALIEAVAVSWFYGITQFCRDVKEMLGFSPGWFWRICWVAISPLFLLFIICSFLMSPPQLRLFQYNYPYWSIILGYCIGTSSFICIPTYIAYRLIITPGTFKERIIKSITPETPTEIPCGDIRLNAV

Row | SMILES | Stabilises dissociation of [3H]-citalopram: 15 uM citalopram (concentration which affects dissociation) (hSERT [1]) | 5-HT uptake (effect) (hSERT [2]) | Binding of [3H]-citalopram (Bmax) (hSERT [3]) | EC50 (hSERT [4]) [mM] | Stabilises dissociation of [3H]-citalopram: own effect (10 uM fluoxetine) (concentration which affects dissociation) (hSERT [1]) | 5-HT uptake (effect) (hSERT [2]; listed as PefaCl) | IC50 (hSERT [5]) [mM] | concentration that increases the allosteric impact on dissociation by 15 μM citalopram (FIG. 7) (hSERT [1]; 15 μM citalopram) [µM] | displacement of the radioligand (FIG. 3) (hSERT [4]; increasing concentrations, 60 minutes incubation at room temperature)
1 | O=S(=O)(Cl)c1ccccc1 [BSC, benzenesulfonyl chloride] | 3000 µM | Increase | No effect | – | – | – | – | – | –
2 | O=S(=O)(Cl)Cc1ccccc1 [PMSC] | No effect | Increase | No effect | – | – | – | – | – | –
3 | NCCc1ccc(S(=O)(=O)Cl)cc1 [PefaCI, 4-(2-Aminoethyl)benzenesulfonyle cloride] | 2000 µM | Increase | No effect | 1.65 | 2000 µM | increases 5-HT uptake | – | – | –
4 | Cc1ccc(S(N)(=O)=O)cc1 [TS1] | 200 µM | Increase | No effect | > 2 | 2000 µM | – | > 2 | 2000 | –
5 | O=P(O)(O)c1ccccc1 [TS4] | – | – | – | > 2 | – | – | > 2 | – | –
6 | O=S(=O)(c1ccccc1)c1ccccc1 [TS5] | – | – | – | > 2 | – | – | > 2 | – | –
7 | COS(=O)(=O)c1ccc(C)cc1 [TS6] | 2000 µM | Increase | No effect | > 2 | No effect | – | > 2 | – | –
8 | CN(C)c1cccc2c(S(=O)(=O)Cl)cccc12 [TS7] | – | – | – | 1.39 | – | – | > 2 | – | –
9 | NC(=O)c1ccccc1 [TS10] | – | – | – | > 2 | – | – | 1.15 | – | –
10 | Nc1cccc2cccc(S(=O)(=O)O)c12 [TS11] | – | – | – | – | – | – | > 2 | – | –
11 | Cc1ccc(S(=O)(=O)N(C)N=O)cc1 [TS13] | 200 µM | Increase | displace | > 2 | 200 µM | – | > 2 | – | –
12 | [C-]#[N+]CS(=O)(=O)c1ccc(C)cc1 [TS15] | 2000 µM | No effect | No effect | > 2 | 2000 µM | – | > 2 | – | –
13 | C=CS(=O)(=O)c1ccccc1 [TS17] | 2000 µM | – | No effect | 1.05 | 2000 µM | – | > 2 | – | –
14 | Nc1cccc2ccccc12 [TS18] | – | – | – | 1.03 | – | – | 0.458 | – | –
15 | Nc1cccc2c(N)cccc12 [TS19] | – | – | – | 0.95 | – | – | 0.422 | – | displaces the radioligand
16 | Clc1cccc2ccccc12 [TS20] | 200 µM | Inhibition | No effect | > 2 | 200 µM | – | 0.373 | – | –
17 | N#Cc1cccc2ccccc12 [TS21] | – | – | – | > 2 | – | – | 0.06 | – | –
18 | O=[N+]([O-])c1cccc2ccccc12 [TS22] | 200 µM | Inhibition | No effect | > 2 | 200 µM | – | 0.0029 | – | –
19 | Cc1ccc2ccccc2c1[N+](=O)[O-] [TS23] | – | – | – | 1.02 | – | – | 0.0159 | – | –
20 | O=[N+]([O-])c1ccc(F)c2ccccc12 [TS25] | – | – | – | > 2 | – | – | 0.0259 | – | –
